Reference: patent US11726088B2, “Sirtuin 4 (SIRT4) lipoamidase activity and uses thereof” (THE TRUSTEES OF PRINCETON UNIVERSITY, priority 2014, dated 2023)
Peptide text beside a SMILES is read from it.

Assays:
[1] = test system: DLAT lipoyl (K132 and K259); assay: DLAT lipoyl levels by PRM quantification in glutamax-stimulated cells; format: cell-based, human; conditions: glutamax stimulation, within 48 hr
Description: Lipoyl-lysine SRM assay. The relative abundance of lipoyl-lysine-containing peptides identified from immunoisolated, in-gel digested DLAT (described above) was measured in mitochondria lysates using a selected reaction monitoring (SRM) full-scan tandem mass spectrometry assay. Purified mitochondria were isolated from MRC5 stable cell lines expressing EGFP, SIRT4-EGFP, and SIRT4-targeting shRNA (described above). Mitochondria pellets were lysed by agitation and bath sonication in 100 μL of hot (95° C.) buffer containing 0.1 M ammonium bicarbonate, 5 mM tris(2-carboxyethyl)phosphine, 1 mM nicotinamide, and 0.1% RapiGest. Protein concentration was determined using the Bradford reagent (Sigma). […] Eluates from the same sample were pooled and concentrated to near-dryness, diluted to 8 μL, and half were analyzed by an LC-SRM-MS/MS assay on an LTQ Orbitrap Velos mass spectrometry (Thermofisher Scientific). […] At least four co-eluting XICs (dot-product score of ≥0.95) were used for peak area quantification. […] Peak areas were summed across XICs, exported to Excel, and normalized across biological replicates (n=3-6) using the average chromatographic precursor intensity calculated by RawMeat (Vast Scientific, Inc). Statistical significance was determined by unpaired, two-tailed t-tests in Microsoft Excel. […]

PDH = PDH activity assay (immunocapture colorimetric) in fibroblasts stimulated with glutamax; format: cell-based, human; conditions: WT fibroblasts, glutamax 4 mM, versus unstimulated cells
Description: PDH activity assay. The activity of the PDHC in MRC5 derivate cell lines was measured using the Pyruvate Dehydrogenase Enzyme Activity Microplate Assay Kit (Abcam, cat. #ab109902) according to manufacturer's instructions. 1000 μg/well of cultured cell extract from each line being tested was used as input for PDHC binding, and 5 μg/well of pyruvate dehydrogenase from porcine heart (Sigma-Aldrich, cat. #P7032) used as a positive control for the assay. PDH activity was measured by reduction of NAD+ to NADH, coupled to the reduction of a reporter dye to yield a colored reaction product with an increase in absorbance at 450 nm at room temperature. […] Statistical significance was assessed by one-way ANOVA in GraphPad Prism 5. […]
We next investigated a cellular condition known to inhibit PDH activity, and examined the involvement of SIRT4 in this process. […] In agreement with these observations, we detected elevated expression of endogenous SIRT4 in cells stimulated with glutamax (FIG. 3J). To validate the dependence of PDH inhibition on SIRT4 activity, we first measured PDH activity in SIRT4 OE cells stimulated with glutamax. […] It remains to be determined whether residual SIRT4 still functions in these knocked-down lines to decrease PDH activity following glutamax stimulation, or another yet to be identified PDH inhibition mechanism is at play. […]

`C[C@H](N)C(=O)N[C@@H](CCC(N)=O)C(=O)O` [glutamax] (H-Ala-Gln-OH) was tested, and the DLAT lipoyl levels [1] was “decrease” and the PDH activity (PDH) was “significant time-dependent decrease”.
